This is an account of results in US20030078274A1, “Method of reducing neuronal injury or apoptosis” (priority 1999, published 2003).

Assay [1] relates to neurons in rat cerebrocortical cultures (gp120-induced apoptosis). Put plainly: gp120-induced neuronal apoptosis in rat cerebrocortical cultures. It counts as cell-based, Sprague-Dawley rats. The following applies: for effect on neuronal apoptosis induced by gp120: gp120 200 pM, 24 h. On the procedure:
The model used in the assays described below, i.e., rat cerebrocortical cultures, was prepared from embryos of Sprague-Dawley rats at day 15 to 17 of gestation. See Lei et al., Neuron 8:1087-1099 (1992) and Lipton et al., Nature 364:626-632 (1993). Cultures were used for experiments after 17 to 24 days in culture. […] Prior to some experiments, macrophages/microglia or neurons were depleted from the cultures by exposure to 7.5 mM L-leucine methyl ester or 2 mM N-methyl-D-aspartate (NMDA), respectively. See Lipton, NeuroReport 3:913-915 (1992). […] In some experiments, the Griess reaction was used to measure nitrite levels in the culture medium as an index of nitric oxide (NO) release. See Chao et al., Glia 16:276-284 (1996).
Cultures were transferred into Earle's Balanced Salt Solution (EBSS) and incubated for 24 hours with gp120, chemokines, Tuftsin fragment 1-3, i.e., Thr-Lys-Pro (TKP), p38 MAPK inhibitor SB 203580 (i.e., 4-(4-fluorophenyl)-2-(4-methylsulfinylphenyl)-5-(4-pyridyl)imidazole, Calbiochem, San Diego, Calif.), or combinations thereof. Chemokines or TKP were applied for 5 minutes and SB 203580 for 15 minutes prior to gp120 exposure.
TKP was obtained from Sigma (St. Louis, Mo.). Recombinant human MIP-1β, SDF-1α, SDF-1β, and recombinant rat RANTES were purchased from R&D systems ([…].) and Endogen (Woburn, Mass.), respectively. HIV-1 envelope glycoprotein gp120 from the strain SF2 was obtained from the NIH AIDS Research and Reference Reagent Program, Division of AIDS, NIAID, NIH. See Scandella et al., AIDS Res. Hum. Retroviruses 9:1233-1244 (1993). Additional gp120s from HIV-1 strains IIIB and RF2 were obtained from Genetech and the National Cancer Institute, respectively. TNFα, IFNγ, and IL-1β were from Genzyme (Cambridge, Mass.), Gibco BRL (Grand Island, N.Y.) and Endogen (Woburn, Mass.), respectively.
Neuronal apoptosis in the above-described assays was assessed using a variety of techniques, e.g., staining of permeabilized cells with propidium iodide to determine apoptotic morphology, and a neuron-specific antibody (against NeuN or MAP-2) to identify cell type. In brief, cells were fixed for 5 minutes with ice-cold acetone at −20° C. and, after three washes in PBS, for 4 minutes with 2% (w/v) paraformaldehyde solution in PBS at room temperature (RT). Acetone-paraformaldehyde-fixed cells were permeabilized using 0.2% Tween 20 in PBS (PBST), and non-specific binding sites were blocked by incubation for 1 hour with a 10% solution of heat-inactivated goat serum in PBST. To specifically stain neurons, cells were then incubated for 4 hours at RT or overnight at 4° C. with 1:500 dilutions of anti-MAP-2 (Sigma) or anti-NeuN monoclonal antibody (mAb; Chemicon, Temecula, Calif.). Their respective non-specific isotype antibodies served as controls. After three washes, the cells were incubated in a secondary polyclonal antibody (pAb) conjugated either to fluorescein isothiocyanate (FITC) or to horseradish peroxidase (HRP). In the case of HRP-coupled pAb, diaminobenzidine (DAB) served as the color substrate developed by incubation in a mixture of 1 mg/ml DAB and 0.8% H2O2 at a ratio of 3:1. Cellular nuclei were subsequently stained with […] propidium iodide for 5 minutes in the dark, and then coverslips were mounted on glass slides. Experiments were replicated at least 3 times with triplicate values in each experiment. Statistical significance was judged by an analysis of variance (ANOVA) followed by a Scheffé or Bonferroni/Dunn post hoc test.

The subject of assay [2] is neurons in rat cerebrocortical cultures. The experiment in a line: Neuronal apoptosis assay, chemokine alone versus control. It counts as cell-based, Sprague-Dawley rats. The following applies: α-chemokine 20-50 nM, 24 h. Here is the method: (§1) The model used in the assays described below, i.e., rat cerebrocortical cultures, was prepared from embryos of Sprague-Dawley rats at day 15 to 17 of gestation. See Lei et al., Neuron 8:1087-1099 (1992) and Lipton et al., Nature 364:626-632 (1993). Cultures were used for experiments after 17 to 24 days in culture. These cultures contain neurons, astrocytes, and macrophages/microglia, as determined with specific immunolabeling. Prior to some experiments, macrophages/microglia or neurons were depleted from the cultures by exposure to 7.5 mM L-leucine methyl ester or 2 mM N-methyl-D-aspartate (NMDA), respectively. See Lipton, NeuroReport 3:913-915 (1992). Absence of macrophages/microglia or neurons in these cultures was confirmed immunocytochemically, using antibodies to ED-1 and microtubule-associated protein-2 (MAP-2), respectively. In some experiments, the Griess reaction was used to measure nitrite levels in the culture medium as an index of nitric oxide (NO) release. See Chao et al., Glia 16:276-284 (1996). […]
(§2) Neuronal apoptosis in the above-described assays was assessed using a variety of techniques, e.g., staining of permeabilized cells with propidium iodide to determine apoptotic morphology, and a neuron-specific antibody (against NeuN or MAP-2) to identify cell type. […]

Assay [3] has as its system retinal ganglion cells (RGCs). The experiment in a line: Optic nerve axotomy model of glaucoma: RGC survival in vivo. The following applies: MK801 intravitreal; 14 days post axotomy. Also on record: species or system Long-Evans rats. An excerpt:
As a model for studying treatment of glaucoma, damaged (axotomized) retinal ganglion cells were employed. Specifically, transection of the optic nerve close to the cell body causes apoptotic death of retinal ganglion cells (RGCs), similar to that found in glaucoma. […] Three days later, the left optic nerve was intraorbitally transected 1 mm from the globe. One day after axotomy, no remarkable change in the fluorescence pattern of RGCs was seen compared to that of controls. RGC density, as assessed by the number of fluorescently-labeled cells, began to decline between 4 and 7 days post axotomy. By 14 days, a substantial number of fluorescently-labeled RGCs appeared to have been lost. Morphologically, in whole-mounted retinas stained with cresyl violet, ganglion cell layer (GCL) of unlesioned control retinas manifest no apoptotic profiles or pyknotic nuclei. In contrast, by 10 days after axotomy, multiple degenerating cell bodies with pyknotic nuclei were apparent in the GCL, and the cell density in this layer appeared to be greatly diminished. When hydroxystilbamidine fluorescence in the GCL was quantified, in unlesioned control retinas the mean RGC density was 2533±104 cells/mm^2 (mean±SD). Within 14 days of axotomy, the mean RGC density decreased to 348±107 (14% of control).
(§3) One day after axotomy, activated (di-phosphorylated) p38 was visualized by immunocytochemistry in the RGC layer, but not in control retinas. By Western blotting, phosphorylated p38 was first detected 12 hours after axotomy and reached a maximum at 24 hours before decreasing. SB 203580 was administered intravitreally at the time of axotomy, and repeated at 5 days and 10 days.
Retrograde labeling of retinal ganglion cells. Adult male Long-Evans rats weighing 200 to 250 g were obtained from a local breeder and, for all experimental manipulations, were anesthetized with 1-2% isoflurane and 70% N2O. RGCs were retrogradely labeled with hydroxystilbamidine (Molecular Probes, Eugene, Oreg., also known as Fluoro-Gold™) to allow accurate counting of cell bodies as described in Vorwerk et al., Invest. Ophthalmol. Vis. Sci. 40:813-816. Rats were anesthetized and placed in a small stereotactic instrument. The skull was exposed and kept dry. The bregma was identified and marked, and a small window was drilled above the right hemisphere, leaving the dura intact.
Axotomy. Optic nerve axotomy was performed on the left eye 4 days after retrograde labeling. After incision of the dorsolateral conjunctiva, the lateral extraocular muscle was transected, and the optic nerve was exposed under a stereoscopic microscope. The optic nerve was then transected at a distance of about 1 mm from the eye bulb. During the operation, care was taken to avoid damage to the retinal blood supply.
(§4) Drug application. Intravitreal injections were carried out using a 33-gauge needle attached to a 25 μl syringe following pupil dilation with 1% atropine sulfate. The tip of the needle was inserted through the dorsal limbus of the eye under stereomicroscopic visualization. Injections were completed over a period of 1 min. Intravitreal injections of SB 203580 (Calbiochem, San Diego, Calif.), MK801 (Research Biochemicals International, Natick, Mass.) or control solutions (as an equal volume of saline diluent) were performed on operated eyes immediately after axotomy, and repeated 5 and 10 days post axotomy.
Quantification of axotomized RGC survival and histology. […]

The subject of assay [4] is p38. The experiment in a line: p38 phosphorylation/activation in retina after axotomy. It counts as in vivo, Long-Evans rats. The settings on record: MK801 intravitreal after axotomy. On the procedure:
as §3, §4
Immunohistochemistry. After enucleation, the eyes were immersed in fixative composed of 4% paraformaldehyde in phosphate-buffered saline (PBS; pH 7.4) at 4° C. Ten minutes later, the eyes were hemisected in the fixative, and the anterior segment, lens and vitreous body were discarded. The remaining posterior eyecup was kept in fresh fixative solution overnight at 4° C. The eyecup was then embedded in paraffin. […]

The subject of assay [5] is neurons in rat cerebrocortical cultures (SDF-1-induced apoptosis). The experiment in a line: SDF-1-induced neuronal apoptosis in rat cerebrocortical cultures. It counts as cell-based, Sprague-Dawley rats. The settings on record: TKP. Here is the method: as §1, §2
Assay [6] concerns cytokine-activated astrocytes. The experiment in a line: NO release (nitrite, Griess reaction) by cytokine-activated astrocytes. It counts as cell-based, Sprague-Dawley rats. The settings on record: in the absence of macrophages/microglia. Here is the method: (§5) The model used in the assays described below, i.e., rat cerebrocortical cultures, was prepared from embryos of Sprague-Dawley rats at day 15 to 17 of gestation. See Lei et al., Neuron 8:1087-1099 (1992) and Lipton et al., Nature 364:626-632 (1993). Cultures were used for experiments after 17 to 24 days in culture. These cultures contain neurons, astrocytes, and macrophages/microglia, as determined with specific immunolabeling. Prior to some experiments, macrophages/microglia or neurons were depleted from the cultures by exposure to 7.5 mM L-leucine methyl ester or 2 mM N-methyl-D-aspartate (NMDA), respectively. See Lipton, NeuroReport 3:913-915 (1992). Absence of macrophages/microglia or neurons in these cultures was confirmed immunocytochemically, using antibodies to ED-1 and microtubule-associated protein-2 (MAP-2), respectively. In some experiments, the Griess reaction was used to measure nitrite levels in the culture medium as an index of nitric oxide (NO) release. See Chao et al., Glia 16:276-284 (1996).
On the technique in general: Griess reagent forms a coloured azo dye with nitrite.

In assay [7] the test system is neurons (NMDA-induced apoptosis). Put plainly: NMDA-induced neuronal apoptosis in cerebrocortical cultures. It counts as cell-based, Sprague-Dawley rats. Here is the method:
as §5, §2

Where [8] appears, read: β-chemokine at 20 nM applied 5 min before gp120.

As for `S=C(S)N1CCCC1` [PDTC, pyrrolidine dithiocarbamate], the “effect on gp120SF2-induced neuronal apoptosis” value in assay [1] (PDTC 5 μM) is “only SB 203580 substantially attenuated”.

RANTES: in assay [1] (setting [8]), the “effect on neuronal apoptosis induced by gp120” value (“effect … by gp120” for short) is reported as “abrogated”.

Take SDF-1α: the “effect … by gp120” value in assay [1] (α-chemokine at 20-50 nM) was “did not reduce neuronal damage or apoptosis”. Also, in assay [2], the “increase in neuronal apoptosis compared to control” value is “approximately 2 fold”.

For `C[C@]12N[C@H](Cc3ccccc31)c1ccccc12` [MK801], in assay [3], the “number of surviving RGCs” value was “increased the number of surviving RGCs”. Moreover, the p38 phosphorylation/activation entry in assay [4] is recorded as “inhibited p38 phosphorylation/activation in a dose-dependent manner”.

Thr-Lys-Pro [TKP]: the “effect on gp120-induced neuronal apoptosis” value in assay [1] (TKP 50 μM, applied 5 min before gp120) was “protected neurons from gp120-induced apoptosis”. In addition, the “effect on SDF-1β-induced neuronal apoptosis” value in assay [5] is “not abrogated”. In addition, the “effect on NO release by cytokine-activated astrocytes” value in assay [6] is “did not inhibit NO release”. Besides, the “effect on NMDA-induced neuronal apoptosis” value in assay [7] is reported as “did not interfere”.

For `COc1cccc(-c2cc(=O)c3ccccc3o2)c1N` [PD 98059, 2′-amino-3′-methoxyflavone], the “effect on gp120SF2-induced neuronal apoptosis” value in assay [1] (PD 98059 2 μM) was “only SB 203580 substantially attenuated”.

B1: MIP-1β: recombinant human MIP-1β, β-chemokine (protein, UniProt P13236 24-92, looked up)
C-C motif chemokine 4: APMGSDPPTACCFSYTARKLPRNFVVDYYETSSLCSQPAVVFQTKRSKQVCADPSESWVQEYVYDLELN
In the case of B1, the “effect … by gp120” value in assay [1] (setting [8]) is “abrogated”.
